From patent US20230113037A1 (Bayer Aktiengesellschaft, priority 2019, published 2023)
Read-outs that look alike come from different tables or passages of the source.

Tests used:
[1] = biological target: T1, AHR (Homo sapiens, UniProt P35869); assay: In vitro assay 1: antagonism in human cell line (AHR transactivation, firefly luciferase reporter, kynurenic acid prestimulated); type: cell-based
T1 construct: U87 MG glioblastoma cells (ATCC #HTB-14) endogenously expressing AHR; endogenous in cells; host or cells: U87 MG glioblastoma cells (ATCC #HTB-14)
T1 sequence (P35869 11-848): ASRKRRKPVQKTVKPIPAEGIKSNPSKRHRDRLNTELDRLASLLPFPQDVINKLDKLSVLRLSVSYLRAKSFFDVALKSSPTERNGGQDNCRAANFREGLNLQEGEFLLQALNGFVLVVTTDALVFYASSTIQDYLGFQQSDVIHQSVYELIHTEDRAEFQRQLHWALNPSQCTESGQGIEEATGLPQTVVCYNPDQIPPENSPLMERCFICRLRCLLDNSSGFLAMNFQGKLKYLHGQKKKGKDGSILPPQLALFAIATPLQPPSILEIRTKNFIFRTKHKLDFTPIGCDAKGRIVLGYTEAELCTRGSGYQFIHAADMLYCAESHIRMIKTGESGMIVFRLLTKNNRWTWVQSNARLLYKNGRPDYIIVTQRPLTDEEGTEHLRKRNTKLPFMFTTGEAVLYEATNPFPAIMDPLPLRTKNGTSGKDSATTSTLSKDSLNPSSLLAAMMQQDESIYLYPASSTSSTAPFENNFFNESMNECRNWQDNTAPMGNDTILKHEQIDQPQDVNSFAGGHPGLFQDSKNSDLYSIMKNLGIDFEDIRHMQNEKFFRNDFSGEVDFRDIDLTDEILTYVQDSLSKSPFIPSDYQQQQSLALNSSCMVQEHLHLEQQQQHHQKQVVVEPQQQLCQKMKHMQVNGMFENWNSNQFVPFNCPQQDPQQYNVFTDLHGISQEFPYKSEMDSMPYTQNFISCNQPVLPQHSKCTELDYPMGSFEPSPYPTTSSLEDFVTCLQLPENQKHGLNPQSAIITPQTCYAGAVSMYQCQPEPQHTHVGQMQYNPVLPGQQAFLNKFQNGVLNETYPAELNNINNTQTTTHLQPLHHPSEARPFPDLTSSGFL
Method in brief: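 Antagonism measured as loss of kynurenic acid-driven firefly luciferase from DRE reporter in stably transfected U87 MG cells; constitutive Renilla signal monitors cytotoxicity. Positive/negative control normalization, staurosporine 5 μM with 150 μM kynurenic acid as inhibition control; replicates given as mean or median.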

[2] = biological target: T2, AHR (Mus musculus, UniProt P30561); assay: In vitro assay 3: antagonism in mouse cell line (AHR transactivation, firefly luciferase reporter, kynurenic acid prestimulated); type: cell-based
T2 sequence (P30561 1-848 P471L/N533S/M589L): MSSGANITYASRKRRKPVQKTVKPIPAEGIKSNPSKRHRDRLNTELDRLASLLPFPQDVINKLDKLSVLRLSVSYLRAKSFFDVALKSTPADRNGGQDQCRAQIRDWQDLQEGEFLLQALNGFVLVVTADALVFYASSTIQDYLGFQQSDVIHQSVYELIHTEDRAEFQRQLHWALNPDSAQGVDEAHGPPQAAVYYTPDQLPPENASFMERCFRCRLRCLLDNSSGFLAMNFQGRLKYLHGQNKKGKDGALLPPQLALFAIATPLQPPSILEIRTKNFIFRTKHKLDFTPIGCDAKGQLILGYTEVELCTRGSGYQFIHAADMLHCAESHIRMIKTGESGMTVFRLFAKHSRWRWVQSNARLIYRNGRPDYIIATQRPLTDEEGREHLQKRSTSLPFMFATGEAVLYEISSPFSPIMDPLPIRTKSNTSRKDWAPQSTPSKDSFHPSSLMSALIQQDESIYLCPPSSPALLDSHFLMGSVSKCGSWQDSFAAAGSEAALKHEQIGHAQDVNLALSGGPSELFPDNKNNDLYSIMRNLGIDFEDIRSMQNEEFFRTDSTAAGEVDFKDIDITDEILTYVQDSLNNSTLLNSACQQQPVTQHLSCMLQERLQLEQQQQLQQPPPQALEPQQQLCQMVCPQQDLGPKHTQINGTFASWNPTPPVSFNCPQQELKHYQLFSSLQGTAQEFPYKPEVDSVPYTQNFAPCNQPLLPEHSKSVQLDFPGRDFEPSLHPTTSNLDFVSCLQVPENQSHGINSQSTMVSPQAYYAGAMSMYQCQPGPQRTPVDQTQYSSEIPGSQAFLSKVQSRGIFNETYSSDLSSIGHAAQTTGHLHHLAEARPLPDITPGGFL
Method in brief: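 Antagonism read as reduced firefly luciferase signal (SteadyGlo) from a stably transfected AHR/DRE reporter in a mouse line prestimulated with kynurenic acid. Data normalized to controls, the full-inhibition control being cells without kynurenic acid; multiple determinations given as average or median values.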

[3] = mouse Hepa 1c1c7 cells, 200 μM kynurenic acid, 20 hours, read-out: AHR Antagonism Mouse IC50
[4] = read-out: AHR Antagonism Mouse IC50, mouse Hepa 1c1c7 cells, 200 μM kynurenic acid, 20 hours

IC50 ([1]; AHR Antagonism Human IC50 [M]) [M] | IC50 [2, 3] [nM] | IC50 ([1]; read-out: AHR Antagonism Human IC50) [M] | Structure (SMILES) | IC50 [2, 4] [nM]
7.8e-07 | 202 |  | COc1cccc(-c2nc3c4ccccc4nc(NC4CCCNC4=O)n3n2)c1 (single isomer, unassigned) [Example 119, 3-{[2-(3-methoxyphenyl)[1,2,4]triazolo[1,5-c]quinazolin-5-yl]amino}piperidin-2-one] | 
6.02e-08 | 56.1 |  | COc1cccc(-c2nc3c4ccccc4nc(NC4CCNC4=O)n3n2)c1 (single isomer, unassigned) [Example 120, 3-{[2-(3-methoxyphenyl)[1,2,4]triazolo[1,5-c]quinazolin-5-yl]amino}pyrrolidin-2-one] | 
1.96e-07 | 275 |  | COc1cccc(-c2nc3c4ccccc4nc(NC4CCNC4=O)n3n2)c1 (single isomer, unassigned) [Example 121, 3-{[2-(3-methoxyphenyl)[1,2,4]triazolo[1,5-c]quinazolin-5-yl]amino}pyrrolidin-2-one] | 
5.55e-08 | 26.1 |  | COc1cccc(-c2nc3c4ccccc4nc(NC4CCN(C)C4=O)n3n2)c1 (single isomer, unassigned) [Example 122, 3-{[2-(3-methoxyphenyl)[1,2,4]triazolo[1,5-c]quinazolin-5-yl]amino}-1-methylpyrrolidin-2-one] | 
3.65e-07 | 1870 |  | COc1cccc(-c2nc3c4ccccc4nc(NC4CCN(C)C4=O)n3n2)c1 (single isomer, unassigned) [Example 123, 3-{[2-(3-methoxyphenyl)[1,2,4]triazolo[1,5-c]quinazolin-5-yl]amino}-1-methylpyrrolidin-2-one] | 
2.09e-08 | 27.6 |  | COc1cccc(-c2nc3c4cc(F)ccc4nc(NC4CCNC4=O)n3n2)c1 (single isomer, unassigned) [Example 186, 3-{[9-fluoro-2-(3-methoxyphenyl)[1,2,4]triazolo[1,5-c]quinazolin-5-yl]amino}pyrrolidin-2-one] | 
6.04e-08 | 321 |  | COc1cccc(-c2nc3c4cc(F)ccc4nc(NC4CCNC4=O)n3n2)c1 (single isomer, unassigned) [Example 187, 3-{[9-fluoro-2-(3-methoxyphenyl)[1,2,4]triazolo[1,5-c]quinazolin-5-yl]amino}pyrrolidin-2-one] | 
3e-08 | 50.4 |  | COc1cccc(-c2nc3c4cc(F)ccc4nc(NC4CCCNC4=O)n3n2)c1 (single isomer, unassigned) [Example 188, 3-{[9-fluoro-2-(3-methoxyphenyl)[1,2,4]triazolo[1,5-c]quinazolin-5-yl]amino}piperidin-2-one] | 
2.61e-07 | 114 |  | COc1cccc(-c2nc3c4cc(F)ccc4nc(NC4CCCNC4=O)n3n2)c1 (single isomer, unassigned) [Example 189, 3-{[9-fluoro-2-(3-methoxyphenyl)[1,2,4]triazolo[1,5-c]quinazolin-5-yl]amino}piperidin-2-one] | 
> 2e-05 | 6180 |  | O=C1NCCNCC1Nc1nc2cccc(C3CC3)c2c2nc(-c3cccc(F)c3)nn12 (single isomer, unassigned) [Example 300, 6-{[10-cyclopropyl-2-(3-fluorophenyl)[1,2,4]triazolo[1,5-c]quinazolin-5-yl]amino}-1,4-diazepan-5-one] | 
 | 2240 | > 2e-05 | O=C1NCCNCC1Nc1nc2cccc(C3CC3)c2c2nc(-c3cccc(F)c3)nn12 (single isomer, unassigned) [Example 301, 6-{[10-cyclopropyl-2-(3-fluorophenyl)[1,2,4]triazolo[1,5-c]quinazolin-5-yl]amino}-1,4-diazepan-5-one] | 
1.35e-07 | 84.7 |  | CS(=N)(=O)c1ccc(-c2nc3c4ccccc4nc(N[C@@H]4CCCCNC4=O)n3n2)cc1 (single isomer, unassigned) [Example 307] | 
1.1e-07 | 18.6 |  | CS(=N)(=O)c1ccc(-c2nc3c4ccccc4nc(N[C@@H]4CCCCNC4=O)n3n2)cc1 (single isomer, unassigned) [Example 308] | 
1.74e-08 | 0.502 |  | CCNC(=O)C(CC)Nc1nc2ccccc2c2nc(-c3cccc(OC(F)(F)F)c3)nn12 (single isomer, unassigned) [Example 319, N-ethyl-2-({2-[3-(trifluoromethoxy)phenyl][1,2,4]triazolo[1,5-c]quinazolin-5-yl}amino)butanamide] | 
1.62e-06 | 4500 |  | CS(=N)(=O)c1cccc(-c2nc3c4ccccc4nc(N[C@@H]4CCCCNC4=O)n3n2)c1 (single isomer, unassigned) [Example 659] | 
8.48e-07 | 927 |  | CS(=N)(=O)c1cccc(-c2nc3c4ccccc4nc(N[C@@H]4CCCCNC4=O)n3n2)c1 (single isomer, unassigned) [Example 660] | 
> 2e-05 | 317 |  | CCNC(=O)C(CC)Nc1nc2ccccc2c2nc(-c3ccccc3OC(F)(F)F)nn12 (single isomer, unassigned) [Example 663, N-ethyl-2-({2-[2-(trifluoromethoxy)phenyl][1,2,4]triazolo[1,5-c]quinazolin-5-yl}amino)butanamide] | 
1.26e-08 | 1.47 |  | CCNC(=O)C(CC)Nc1nc2ccccc2c2nc(-c3ccccc3OC(F)(F)F)nn12 (single isomer, unassigned) [Example 664, N-ethyl-2-({2-[2-(trifluoromethoxy)phenyl][1,2,4]triazolo[1,5-c]quinazolin-5-yl}amino)butanamide] | 

Structure (SMILES) | IC50 ([1]; AHR Antagonism Human IC50 [M]) [M] | IC50 [2, 3] [nM] | IC50 ([1]; read-out: AHR Antagonism Human IC50) [M] | IC50 [2, 4] [nM]
COc1cccc(-c2nc3c4c(C)cccc4nc(NC4CCNC4=O)n3n2)c1 (single isomer, unassigned) [Example 190, 3-{[2-(3-methoxyphenyl)-10-methyl[1,2,4]triazolo[1,5-c]quinazolin-5-yl]amino}pyrrolidin-2-one] | 1.54e-07 |  |  | 252
COc1cccc(-c2nc3c4c(C)cccc4nc(NC4CCNC4=O)n3n2)c1 (single isomer, unassigned) [Example 191, 3-{[2-(3-methoxyphenyl)-10-methyl[1,2,4]triazolo[1,5-c]quinazolin-5-yl]amino}pyrrolidin-2-one] | 1.96e-07 |  |  | 1090
CCCCC(Nc1nc2ccccc2c2nc(-c3cccc(OC(F)(F)F)c3)nn12)C(N)=O (single isomer, unassigned) [Example 324, N^2-{2-[3-(trifluoromethoxy)phenyl][1,2,4]triazolo[1,5-c]quinazolin-5-yl}-norleucinamide] | 2.02e-08 |  |  | 16.4
CS(=N)(=O)c1ccccc1-c1nc2c3ccccc3nc(N[C@@H]3CCCCNC3=O)n2n1 (single isomer, unassigned) [Example 661] | 1.53e-07 |  |  | 139
CS(=N)(=O)c1ccccc1-c1nc2c3ccccc3nc(N[C@@H]3CCCCNC3=O)n2n1 (single isomer, unassigned) [Example 662] | 6.86e-08 |  |  | 70.4
